According to ChEMBL document CHEMBL5223101, “Evolution of 3-(4-hydroxyphenyl)indoline-2-one as a scaffold for potent and selective anticancer activity” (RSC Med Chem, 2022):

Key:
HEK-293T = experiment: Anticancer activity against human HEK293T cells assessed as cell viability at 1 uM by tryphan blue staining based cell counter analysis relative to control; format: functional; settings: read-out: Activity
MCF-10A = experiment: Anticancer activity against human MCF-10A cells assessed as cell viability at 1 uM by tryphan blue staining based cell counter analysis relative to control; format: functional; settings: read-out: Activity
MCF7 = experiment: Anticancer activity against human MCF7 cells assessed as cell viability at 1 uM by tryphan blue staining based cell counter analysis relative to control; format: functional; settings: read-out: Activity
T47D [1] = experiment: Anticancer activity against human T47D cells assessed as cell proliferation incubated for 4 days by MTS assay; format: functional, cell-based; settings: 96 h
BT-474 = experiment: Anticancer activity against human BT-474 cells assessed as cell viability at 1 uM by tryphan blue staining based cell counter analysis relative to control; format: functional; settings: read-out: Activity
ES-2 = experiment: Anticancer activity against human ES2 assessed as cell viability at 1 uM by tryphan blue staining based cell counter analysis relative to control; format: functional; settings: read-out: Activity
HeLa = experiment: Anticancer activity against human HeLa cells assessed as cell viability at 1 uM by tryphan blue staining based cell counter analysis relative to control; format: functional; settings: read-out: Activity
MDA-MB-231 [2] = experiment: Anticancer activity against human MDA-MB-231 cells assessed as cell viability at 1 uM by tryphan blue staining based cell counter analysis relative to control; format: functional; settings: read-out: Activity
T47D [3] = experiment: Anticancer activity against human T47D cells assessed as cell viability at 1 uM by tryphan blue staining based cell counter analysis relative to control; format: functional; settings: read-out: Activity
T47D [4] = experiment: Anticancer activity against human T47D cells assessed as cell growth inhibition incubated for 24 hrs; format: functional, cell-based; settings: pooled result: one value given for 16 cell lines, strains, targets or settings
MDA-MB-231 [5] = experiment: Anticancer activity against human MDA-MB-231 cells assessed as cell growth inhibition incubated for 24 hrs; format: functional, cell-based; settings: MDA-MB-231, 24 h, pooled result: one value given for 13 cell lines, strains, targets or settings

| IC50 (T47D [4]) [µM] | IC50 (MDA-MB-231 [5]) [µM] | SMILES | viability at 1 µM (HEK-293T) [%] | viability at 1 µM (MCF-10A) [%] | viability at 1 µM (MCF7) [%] | IC50 (T47D [1]) [µM] | viability at 1 µM (BT-474) [%] | viability at 1 µM (ES-2) [%] | viability at 1 µM (HeLa) [%] | viability at 1 µM (MDA-MB-231 [2]) [%] | viability at 1 µM (T47D [3]) [%] |
| --- | --- | --- | --- | --- | --- | --- | --- | --- | --- | --- | --- |
| – | – | Cc1cccc2c1NC(=O)C2(c1ccc(O)cc1)c1ccc(O)cc1 | < 20 | < 20 | < 20 | 0.015 | < 20 | < 20 | < 20 | < 20 | < 20 |
| 0.034 | 12.4 | O=C1Nc2c(C(F)(F)F)cccc2[C@@]1(c1ccc(O)cc1)c1ccc(OC(F)(F)F)cc1 | – | – | – | – | – | – | – | – | – |
